SMILES strings stand for the structures.

The source of these data is patent publication US20250129070A1, “BIFUNCTIONAL ANDROGEN RECEPTOR COMPOUNDS” (priority 2023, published 2025).

The subject of one test is VCaP cells. Description: VCaP growth inhibition assay. Type of test: cell-based. To be noted: 30 pM R1881, 9 days, CTG. Here is the method:
VCaP cells (ATCC Cat #CRL-2876) are plated at 1×10^4 cells per well of a white plastic 96-well cluster plate (Thermo Scientific Nunc Cat #165306) in 100 uL phenol red-free DMEM (Gibco Cat #21063-029) media with 5% CSS (Omega Scientific Cat #FB-04). Cluster plates are returned to the incubator (37*C/5% CO2) for 72 hours prior to treatment. Just prior to treatment, 100 μL of phenol red-free DMEM/5% CSS and […] R1881 (Sigma Cat #R0908-10 mg) was added to each well of the cluster plates (Final R1881 concentration=30 pM). Compounds (200×) were added to each well in a volume of 1 uL, with serial dilutions (1:5) from 20 uM to 2 pM (final concentrations in well are 100 nM to 10 fM). Cluster plates are returned to the incubator for 9 days.
After the 9-day treatment period, media was removed from the cluster plates by inversion and 100 uL room temperature CTG reagent (Promega Cat #G7573) is added to each well. The cluster plates are placed on a shaker and incubated at room temperature for 20 minutes. Following this shaking/incubation, cluster plates are read on a luminometer (BMG ClarioStar). IC50 values are obtained by graphing the RLU data vs. compound concentration with nonlinear regression 4-parameter logistic curves (GraphPad Prism).

For a further test, the system named is AR / CBP ternary complex. The test is described as follows: Ternary complex formation assay (sandwich ELISA, AR capture / CBP detection) in VCaP cell lysates. In kind it is cell-based. As to conditions: 1.5 hours treatment, sandwich ELISA (AR capture, CBP or p300 detection). The method in brief:
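VCaP cells (50K/well, 5% charcoal-stripped FBS, ≥3 days) treated with bifunctional compound for 1.5 h, then lysed 30 min at 4 °C. AR captured on anti-AR (AR 441) plates; bound CBP or p300 detected by rabbit mAb plus HRP secondary. QuantaRed chemifluorescence read at ex 570/em 585, immediately and at 5 and 15 min.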

A word on the IC50: it is the point on the concentration scale where inhibition reaches its midpoint. Low readings indicate inhibition by little substance, high ones a need for much substance. `COc1cc(OC2C(C)(C)C(NC(=O)c3ccc(N4CCC5(CC4)CC(Oc4ccc(-c6cc7c(cc6C(F)F)N(c6nn(C8CCOCC8)c8c6CN(C(C)=O)CC8)CCC7)cn4)C5)cc3)C2(C)C)ccc1C#N` (centres unmarked) [Compound 306, 4-[2-[[5-[1-(5-acetyl-1-tetrahydropyran-4-yl-6,7-dihydro-4H-pyrazolo[4,3-c]pyridin-3-yl)-7-(difluoromethyl)-3,4-dihydro-2H-quinolin-6-yl]-2-pyridyl]oxy]-7-azaspiro[3.5]nonan-7-yl]-N-[3-(4-cyano-3-methoxy-phenoxy)-2,2,4,4-tetramethyl-cyclobutyl]benzamide]: the IC50 in the test with VCaP cells was in the range of 1 to 100 nM.

On to `CC(=O)N1CCc2c(c(Nc3ccc(-c4cnn(C)c4)cc3F)nn2C2CCN(CC3CCN(c4ncc(C(=O)NC5C(C)(C)C(Oc6ccc(C#N)c(Cl)c6)C5(C)C)cn4)CC3)C2)C1` (centres unmarked) [Compound 7, 2-[4-[[3-[5-acetyl-3-[2-fluoro-4-(1-methylpyrazol-4-yl)anilino]-6,7-dihydro-4H-pyrazolo[4,3-c]pyridin-1-yl]pyrrolidin-1-yl]methyl]-1-piperidyl]-N-[3-(3-chloro-4-cyano-phenoxy)-2,2,4,4-tetramethyl-cyclobutyl]pyrimidine-5-carboxamide], for which, in the test on VCaP cells, the IC50 was in the range of 0.1 to 1 nM.

`COc1cc(OC2C(C)(C)C(NC(=O)c3ccc(N4CCC(N5CCC(n6cc(-c7cc8cccc(-c9nn(C%10CCOCC%10)c%10c9CN(C(C)=O)CC%10)c8cn7)cn6)CC5)CC4)cc3)C2(C)C)ccc1C#N` (centres unmarked) [Compound 270, 4-[4-[4-[4-[8-(5-acetyl-1-tetrahydropyran-4-yl-6,7-dihydro-4H-pyrazolo[4,3-c]pyridin-3-yl)-3-isoquinolyl]pyrazol-1-yl]-1-piperidyl]-1-piperidyl]-N-[3-(4-cyano-3-methoxy-phenoxy)-2,2,4,4-tetramethylcyclobutyl]benzamide] came in with an IC50 with VCaP cells of 0.1 to 1 nM.

Turning to `CC(=O)N1CCc2c(c(N3CCCc4cc(-c5cnn(C)c5)c(C(F)F)cc43)nn2C2CCC3(CC2)CCN(c2ccc4c(n2)CN(C2C(C)(C)C(Oc5ccc(C#N)c(Cl)c5)C2(C)C)C4=O)CC3)C1` (centres unmarked) [Compound 298, 4-[3-[2-[9-[5-acetyl-3-[7-(difluoromethyl)-6-(1-methylpyrazol-4-yl)-3,4-dihydro-2H-quinolin-1-yl]-6,7-dihydro-4H-pyrazolo[4,3-c]pyridin-1-yl]-3-azaspiro [5.5]undecan-3-yl]-5-oxo-7H-pyrrolo[3,4-b]pyridin-6-yl]-2,2,4,4-tetramethyl-cyclobutoxy]-2-chloro-benzonitrile], the IC50 in the test with VCaP cells was > 100 nM.

In the test with VCaP cells, `CC(=O)N1CCc2c(c(Nc3ccc(-c4cnn(C)c4)cc3F)nn2C2CCN(CCC3CCN(c4ncc(C(=O)NC5C(C)(C)C(Oc6ccc(C#N)c(Cl)c6)C5(C)C)cn4)CC3)CC2)C1` (centres unmarked) [Compound 168, 2-[4-[2-[4-[5-acetyl-3-[2-fluoro-4-(1-methylpyrazol-4-yl)anilino]-6,7-dihydro-4H-pyrazolo[4,3-c]pyridin-1-yl]-1-piperidyl]ethyl]-1-piperidyl]-N-[3-(3-chloro-4-cyano-phenoxy)-2,2,4,4-tetramethyl-cyclobutyl]pyrimidine-5-carboxamide] showed an IC50 of 0.1 to 1 nM.

Molecule `COc1cc(OC2C(C)(C)C(NC(=O)c3ccc(N4CCC5(CCC(n6cc(-c7cc8cccc(-c9nn(C%10CCOCC%10)c%10c9CN(C(C)=O)CC%10)c8cn7)cn6)CC5)CC4)cc3)C2(C)C)ccc1C#N` (centres unmarked) [Compound 269, 4-[9-[4-[8-(5-acetyl-1-tetrahydropyran-4-yl-6,7-dihydro-4H-pyrazolo[4,3-c]pyridin-3-yl)-3-isoquinolyl]pyrazol-1-yl]-3-azaspiro[5.5]undecan-3-yl]-N-[3-(4-cyano-3-methoxy-phenoxy)-2,2,4,4-tetramethyl-cyclobutyl]benzamide] returned an IC50 with VCaP cells of 0.1 to 1 nM.

As for `COc1cc(OC2C(C)(C)C(NC(=O)c3ccc(N4CCC5(CC4)CCN(c4ccc(-c6cc7cccc(-c8nn(C9CCOCC9)c9c8CN(C(C)=O)CC9)c7cn6)cn4)CC5)cc3)C2(C)C)ccc1C#N` (centres unmarked) [Compound 266, 4-[3-[5-[8-(5-acetyl-1-tetrahydropyran-4-yl-6,7-dihydro-4H-pyrazolo[4,3-c]pyridin-3-yl)-3-isoquinolyl]-2-pyridyl]-3,9-diazaspiro[5.5]undecan-9-yl]-N-[3-(4-cyano-3-methoxy-phenoxy)-2,2,4,4-tetramethyl-cyclobutyl]benzamide], in the test with VCaP cells, the IC50 fell in the range of 0.1 to 1 nM.

Consider `CC(=O)N1CCc2c(c(N3CCCc4cc(-c5cnn(C)c5)c(C(F)F)cc43)nn2C2CCN(CCOCc3ncc(C(=O)NC4C(C)(C)C(Oc5ccc(C#N)c(Cl)c5)C4(C)C)cn3)CC2)C1` (centres unmarked) [Compound 88, 2-[2-[4-[5-acetyl-3-[7-(difluoromethyl)-6-(1-methylpyrazol-4-yl)-3,4-dihydro-2H-quinolin-1-yl]-6,7-dihydro-4H-pyrazolo[4,3-c]pyridin-1-yl]-1-piperidyl]ethoxymethyl]-N-[3-(3-chloro-4-cyano-phenoxy)-2,2,4,4-tetramethyl-cyclobutyl]pyrimidine-5-carboxamide], for which the 50% inhibitory concentration (IC50) with VCaP cells was 0.1 to 1 nM.

As to `CC(=O)N1CCc2c(c(Nc3ccc(-c4cnn(C)c4)cc3F)nn2C2CN(CCN3CCN(c4ncc(C(=O)NC5C(C)(C)C(Oc6ccc(C#N)c(Cl)c6)C5(C)C)cn4)CC3)C2)C1` (centres unmarked) [Compound 164, 2-[4-[2-[3-[5-acetyl-3-[2-fluoro-4-(1-methylpyrazol-4-yl)anilino]-6,7-dihydro-4H-pyrazolo[4,3-c]pyridin-1-yl]azetidin-1-yl]ethyl]piperazin-1-yl]-N-[3-(3-chloro-4-cyano-phenoxy)-2,2,4,4-tetramethyl-cyclobutyl]pyrimidine-5-carboxamide], the 50% inhibitory concentration (IC50) in the test on VCaP cells was ≤ 0.1 nM.

One may read the EC50 as the concentration at which the effect is half-maximal. The low end stands for higher potency in that assay, the high end for lower potency in that assay. As for `COc1cc(OC2C(C)(C)C(NC(=O)c3ccc(N4CCC(C5CCC(n6nc(N7CCCc8cc(-c9cnn(C)c9)c(C(F)F)cc87)c7c6CCN(C(C)=O)C7)CC5)CC4)cc3)C2(C)C)ccc1C#N` (centres unmarked) [Compound 259, 4-[4-[4-[5-acetyl-3-[7-(difluoromethyl)-6-(1-methylpyrazol-4-yl)-3,4-dihydro-2H-quinolin-1-yl]-6,7-dihydro-4H-pyrazolo[4,3-c]pyridin-1-yl]cyclohexyl]-1-piperidyl]-N-[3-(4-cyano-3-methoxy-phenoxy)-2,2,4,4-tetramethyl-cyclobutyl]benzamide], the EC50 in the test with AR / CBP ternary complex fell in the range of 1 to 10 nM.

Turning to `CC(=O)N1CCc2c(c(N3CCCc4cc(-c5cnn(C)c5)c(C(F)F)cc43)nn2C2CCN(C(C)C3CCN(c4ncc(C(=O)NC5C(C)(C)C(Oc6ccc(C#N)c(Cl)c6)C5(C)C)cn4)CC3)CC2)C1` (centres unmarked) [Compound 113, 2-[4-[1-[4-[5-acetyl-3-[7-(difluoromethyl)-6-(1-methylpyrazol-4-yl)-3,4-dihydro-2H-quinolin-1-yl]-6,7-dihydro-4H-pyrazolo[4,3-c]pyridin-1-yl]-1-piperidyl]ethyl]-1-piperidyl]-N-[3-(3-chloro-4-cyano-phenoxy)-2,2,4,4-tetramethyl-cyclobutyl]pyrimidine-5-carboxamide], the EC50 in the test on AR / CBP ternary complex is < 1 nM.

For the molecule `CC(=O)N1CCc2c(c(N3CCCc4cc(-c5cnn(C)c5)c(C(F)F)cc43)nn2C2CCN(C3CC4(CCN(c5ncc(C(=O)NC6C(C)(C)C(Oc7ccc(C#N)c(Cl)c7)C6(C)C)cn5)C4)C3)CC2)C1` (centres unmarked) [Compound 346, 2-[2-[4-[5-acetyl-3-[7-(difluoromethyl)-6-(1-methylpyrazol-4-yl)-3,4-dihydro-2H-quinolin-1-yl]-6,7-dihydro-4H-pyrazolo[4,3-c]pyridin-1-yl]-1-piperidyl]-6-azaspiro [3.4]octan-6-yl]-N-[3-(3-chloro-4-cyano-phenoxy)-2,2,4,4-tetramethyl-cyclobutyl]pyrimidine-5-carboxamide], the EC50 with AR / CBP ternary complex is < 1 nM.

With `COc1cc(OC2C(C)(C)C(NC(=O)c3ccc(N4CC5(CCC(N6CCC(n7nc(N8CCCc9cc(-c%10cnn(C)c%10)c(C(F)F)cc98)c8c7CCN(C(C)=O)C8)CC6)C5)C4)cc3)C2(C)C)ccc1C#N` (centres unmarked) [Compound 345, 4-[6-[4-[5-acetyl-3-[7-(difluoromethyl)-6-(1-methylpyrazol-4-yl)-3,4-dihydro-2H-quinolin-1-yl]-6,7-dihydro-4H-pyrazolo[4,3-c]pyridin-1-yl]-1-piperidyl]-2-azaspiro[3.4]octan-2-yl]-N-[3-(4-cyano-3-methoxy-phenoxy)-2,2,4,4-tetramethyl-cyclobutyl]benzamide], in the test with AR / CBP ternary complex, the EC50 was < 1 nM.

As to `CC(=O)N1CCc2c(c(N3CCCc4cnccc43)nn2C2CCN(CC3CCN(c4ncc(C(=O)NC5C(C)(C)C(Oc6ccc(C#N)c(Cl)c6)C5(C)C)cn4)CC3)CC2)C1` (centres unmarked) [Compound 157, 2-[4-[[4-[5-acetyl-3-(3,4-dihydro-2H-1,6-naphthyridin-1-yl)-6,7-dihydro-4H-pyrazolo[4,3-c]pyridin-1-yl]-1-piperidyl]methyl]-1-piperidyl]-N-[3-(3-chloro-4-cyano-phenoxy)-2,2,4,4-tetramethyl-cyclobutyl]pyrimidine-5-carboxamide], the EC50 in the test with AR / CBP ternary complex was < 1 nM.
